The values below are quoted from earlier work in paper PMC10423561, “Effects of the CYP3A inhibitors, voriconazole, itraconazole, and fluconazole on the pharmacokinetics of osimertinib in rats” (PeerJ, 2023).

Like-named read-outs stand apart in the source and are kept apart here.

On the set-up of series [1]: method as in Fu et al., 2023. The conditions noted are these: ref Fu et al., 2023, cited from earlier work.
The subject of the next series is CYP3A. As to conditions: CYP3A probe substrate; inhibitor not stated; ref Uchida, Tanaka & Namiki, 2014; cited from earlier work.

Take `C=CC(=O)Nc1cc(Nc2nccc(-c3cn(C4CC4)c4ccccc34)n2)c(OC)cc1N(C)CCN(C)C` [almonertinib]: the “increase in systemic exposure of almonertinib” value was 3.4 fold in series [1] (with FCZ) and 2.7 fold in series [1] (with VCZ).

`Cc1ncc2n1-c1ccc(Cl)cc1C(c1ccccc1F)=NC2` [midazolam]: in the series with CYP3A, the “increase in AUC0–360 of midazolam” value is 133%.
